Reference: ChEMBL document CHEMBL1129285, “Conformationally constrained analogues of diacylglycerol. 10. Ultrapotent protein kinase C ligands based on a racemic 5-disubstituted tetrahydro-2-furanone template” (J Med Chem, 1996)

Target: Protein kinase C alpha type (Homo sapiens, UniProt P17252)
Assay: Displacement of [H-20]phorbol12,13-dibutyrate (PDBU) from Protein kinase C alpha

| Ki [nM] | Structure (SMILES) |
| --- | --- |
| 34 | CCCCCCCCCCCCC/C=C1/CC(CO)(COC(C)=O)OC1=O (configuration not stated) |
| 78 | CCCCCCCCCCCCC/C=C1\CC(CO)(COC(C)=O)OC1=O (configuration not stated) |
